Consider 9 compounds from patent US20240287138A1, “CYCLIC PEPTIDES FOR INHIBITING TNF RECEPTOR 1 ACTIVITY” (Merck Sharp & Dohme LLC, priority 2023, published 2024).

Where two headings read alike, the source gives them in different places. Numbered stars: 1 amine (or outer) side, 2 acyl side, 3 side chain; on linkers, the order of the positions; unused ones are H or OH. Bridge positions count the residues as written; N and C are the ends. Square brackets hold non-standard residues; d marks the D form. Peptide text beside a SMILES is read from it. * marks the point of attachment. Trp(βS-Me,7-OMe) = COc1cccc2c([C@H](C)[C@H](N)C(=O)O)c[nH]c12; Trp(1-CH2COOH) = N[C@@H](Cc1cn(CC(=O)O)c2ccccc12)C(=O)O; Ala(indazol-1-yl) = N[C@@H](Cn1ncc2ccccc21)C(=O)O; Trp(7-CN) = N#Cc1cccc2c(C[C@H](N)C(=O)O)c[nH]c12; Trp(7-Cl) = N[C@@H](Cc1c[nH]c2c(Cl)cccc12)C(=O)O; X20 = O=C1NCc2ccc(C[C@H](N[*:1])C(=O)[*:2])cc21; Phe(3-CONH2) = NC(=O)c1cccc(C[C@H](N)C(=O)O)c1; Phe(4-CONH2) = NC(=O)c1ccc(C[C@H](N)C(=O)O)cc1; Phe(4-COOH) = N[C@@H](Cc1ccc(C(=O)O)cc1)C(=O)O; 4Pal(3S-Me) = C[C@@H](c1ccncc1)[C@H](N)C(=O)O; Trp(7-aza) = N[C@@H](Cc1c[nH]c2ncccc12)C(=O)O; Phe(4-CH2NH2) = NCc1ccc(C[C@H](N)C(=O)O)cc1; dPro(trans-4-F) = O=C(O)[C@H]1C[C@H](F)CN1; Pip(5R-OH) = O=C(O)[C@@H]1CC[C@@H](O)CN1; αMeW = C[C@](N)(Cc1c[nH]c2ccccc12)C(=O)O; X1 = O=C([C@@H]1CC[C@H](N[*:1])C1)[*:2]; Pip(4-aza) = O=C(O)[C@@H]1CNCCN1; 4Pal = N[C@@H](Cc1ccncc1)C(=O)O; Abu(4-CN) = N#CCC[C@H](N)C(=O)O; Gly(cBu) = N[C@H](C(=O)O)C1CCC1; NMeE = CN[C@@H](CCC(=O)O)C(=O)O; dHyp = O=C(O)[C@H]1C[C@H](O)CN1; Gly(N-CH2CH2OH) = O=C(O)CNCCO; Ahp(2) = CCCCC[C@H](N)C(=O)O; αMeS = C[C@](N)(CO)C(=O)O; Carboxymethyl = O=C(O)C*; Nle = CCCC[C@H](N)C(=O)O; Sar = CNCC(=O)O

Test [1] concerns the target T1, human TNFR1 extracellular domain (ECD) protein (Homo sapiens, UniProt P19438).
T1 construct: HRV 3C protease cleavage site (C); 6His (C, cleaved yes); made in house; host or cells: Sf21 insect cells (baculovirus), secreted
T1 sequence (P19438 30-211): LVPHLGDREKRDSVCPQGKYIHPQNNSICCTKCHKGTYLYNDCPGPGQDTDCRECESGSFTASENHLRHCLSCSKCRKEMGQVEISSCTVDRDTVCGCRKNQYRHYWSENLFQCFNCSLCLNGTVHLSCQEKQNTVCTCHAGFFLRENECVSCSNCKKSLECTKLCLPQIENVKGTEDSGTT
Description: SPR binding affinity to captured human TNFR1 ECD. Put shortly:
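Biotinylated avi-tagged human TNFR1 or TNFR2 ECD, expressed in Sf21 insect cells, captured on streptavidin SPR chip; peptide analytes run in 10 mM HEPES pH 7.4, 150 mM NaCl, 3 mM EDTA, 0.05% P20, 2% DMSO. kon and koff measured, affinity KA calculated.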
On the technique in general: In SPR one partner is held on a chip, and binding of the other changes the refractive index at the surface.

Test [2] deals with T2, TNFα-induced NF-κB signal transduction pathway (TNFR1 signaling) in THP-1 cells (Homo sapiens, UniProt P19438).
T2 sequence (P19438 30-455): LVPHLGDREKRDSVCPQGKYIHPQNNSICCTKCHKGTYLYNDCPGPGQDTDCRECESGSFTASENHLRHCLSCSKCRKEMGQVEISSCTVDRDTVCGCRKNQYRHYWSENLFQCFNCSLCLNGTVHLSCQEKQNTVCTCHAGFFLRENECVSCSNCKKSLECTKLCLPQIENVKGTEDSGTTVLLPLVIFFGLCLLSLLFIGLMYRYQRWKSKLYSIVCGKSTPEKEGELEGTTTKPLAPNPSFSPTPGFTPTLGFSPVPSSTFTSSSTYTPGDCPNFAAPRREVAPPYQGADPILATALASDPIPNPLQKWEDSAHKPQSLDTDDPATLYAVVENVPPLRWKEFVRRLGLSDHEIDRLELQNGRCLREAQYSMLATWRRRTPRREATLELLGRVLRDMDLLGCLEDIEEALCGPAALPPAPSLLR
Description: THP-1 Lucia NF-κB reporter cell assay, inhibition of TNFα-induced NF-κB signaling. Format: cell-based. Conditions: THP-1 NF-κB Lucia reporter cells, 10 ng/mL TNFα, 16-18 h, secreted luciferase; read-out: THP-1 IC50. The gist of the method:
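Inhibition of TNFR1-driven NF-κB activation was measured as luminescence of secreted reporter luciferase following overnight (16-18 h) stimulation with 10 ng/mL TNFα.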

[3] abbreviates: biotinylated human TNFR1 ECD on streptavidin chip, from kon and koff, read-out: SPR hTNFR1 KD.

The term Kd denotes a measure of binding affinity in units of concentration. One may read the IC50 as the point on the concentration scale where inhibition reaches its midpoint. Consider `CCCC[C@@H]1NC(=O)[C@@H]2CC[C@@H](C2)NC(=O)[C@H]([C@@H](C)c2c[nH]c3c(OC)cccc23)NC(=O)CN(C)C(=O)[C@H](Cc2ccc(O)cc2)NC(=O)[C@H](Cc2ccc(OCC(=O)O)cc2)NC(=O)[C@](C)(CO)NC(=O)[C@H](Cc2c[nH]c3c(Cl)cccc23)NC(=O)[C@H](Cc2ccncc2)NC(=O)[C@H](CC(N)=O)NC(=O)[C@H](CCC(=O)O)N(C)C(=O)[C@H](Cc2c[nH]c3ccccc23)NC(=O)[C@@H]2CNCCN2C(=O)[C@H](Cc2ccncc2)NC1=O` [SEQ ID NO. 80] (cyclo([4Pal][Trp(7-Cl)][αMeS]Y(Carboxymethyl)Y[Sar][Trp(βS-Me,7-OMe)][X1][Nle][4Pal][Pip(4-aza)]W[NMeE]N)), for which the Kd in test [1] is 0.33 nM. Moreover, the IC50 in test [2] amounted to 1.2 nM.

In turn, `CCCC[C@@H]1NC(=O)CSC[C@@H](C(N)=O)NC(=O)[C@](C)(Cc2c[nH]c3ccccc23)NC(=O)CN(C)C(=O)[C@H](Cc2ccc(O)cc2)NC(=O)[C@H](Cc2ccc(C(=O)O)cc2)NC(=O)[C@](C)(CO)NC(=O)[C@H](Cc2c[nH]c3c(Cl)cccc23)NC(=O)[C@H](Cc2ccncc2)NC(=O)[C@H](CC(N)=O)NC(=O)[C@H](CCC(=O)O)N(C)C(=O)[C@H](Cc2c[nH]c3ncccc23)NC(=O)[C@H](C2CCC2)NC(=O)[C@H](Cc2ccncc2)NC1=O` [SEQ ID NO. 56] ({CH2CO}-[Nle][4Pal][Gly(cBu)][Trp(7-aza)][NMeE]N[4Pal][Trp(7-Cl)][αMeS][Phe(4-COOH)]Y[Sar][αMeW]C-NH2; thioether N-14) yielded a Kd in test [1] of 27.2 nM. Besides, the IC50 in test [2] was 11 nM.

Compound `CCCC[C@@H]1NC(=O)[C@@H]2CC[C@@H](C2)NC(=O)[C@H]([C@@H](C)c2c[nH]c3c(OC)cccc23)NC(=O)CN(C)C(=O)[C@H](Cc2ccc(O)cc2)NC(=O)[C@H](Cc2ccc(C(N)=O)cc2)NC(=O)[C@](C)(CO)NC(=O)[C@H](Cc2c[nH]c3c(Cl)cccc23)NC(=O)[C@H](Cc2ccncc2)NC(=O)[C@H](CC(N)=O)NC(=O)[C@H](CCC(=O)O)N(C)C(=O)[C@H](Cn2ncc3ccccc32)NC(=O)[C@@H]2CC[C@@H](O)CN2C(=O)[C@H](Cc2ccncc2)NC1=O` [SEQ ID NO. 74] (cyclo([4Pal][Trp(7-Cl)][αMeS][Phe(4-CONH2)]Y[Sar][Trp(βS-Me,7-OMe)][X1][Nle][4Pal][Pip(5R-OH)][Ala(indazol-1-yl)][NMeE]N)) registered a dissociation constant Kd in test [1] of 0.12 nM. Further, in test [2], the IC50 turned out to be 0.5 nM.

`CCCC[C@@H]1NC(=O)[C@@H]2CC[C@@H](C2)NC(=O)[C@H]([C@@H](C)c2c[nH]c3c(OC)cccc23)NC(=O)CN(C)C(=O)[C@H](Cc2ccc(O)cc2)NC(=O)[C@H](Cc2ccc(C(=O)O)cc2)NC(=O)[C@](C)(CO)NC(=O)[C@H](Cc2c[nH]c3c(Cl)cccc23)NC(=O)[C@H](Cc2ccncc2)NC(=O)[C@H](CC(N)=O)NC(=O)CN(CCO)C(=O)[C@H](Cc2c[nH]c3ccccc23)NC(=O)[C@@H]2CNCCN2C(=O)[C@H](Cc2ccncc2)NC1=O` [SEQ ID NO. 72] (cyclo([4Pal][Trp(7-Cl)][αMeS][Phe(4-COOH)]Y[Sar][Trp(βS-Me,7-OMe)][X1][Nle][4Pal][Pip(4-aza)]W[Gly(N-CH2CH2OH)]N)): the Kd in test [1] was found to be 0.05 nM. For the same compound, the IC50 in test [2] worked out at 0.8 nM.

Compound `CCCCC[C@@H]1NC(=O)[C@@H]2CC[C@@H](C2)NC(=O)[C@H]([C@@H](C)c2c[nH]c3c(OC)cccc23)NC(=O)CN(C)C(=O)[C@H](Cc2ccc(C(N)=O)cc2)NC(=O)[C@H](Cc2ccc(C(N)=O)cc2)NC(=O)[C@](C)(CO)NC(=O)[C@H](Cc2c[nH]c3c(C#N)cccc23)NC(=O)[C@H](Cc2ccc(C(=O)O)cc2)NC(=O)[C@H](CC(N)=O)NC(=O)[C@H]2C[C@H](O)CN2C(=O)[C@H](Cc2c[nH]c3ccccc23)NC(=O)[C@H](CCC#N)NC(=O)[C@H]([C@@H](C)c2ccncc2)NC1=O` [SEQ ID NO. 79] (cyclo([Ahp(2)][4Pal(3S-Me)][Abu(4-CN)]W[dHyp]N[Phe(4-COOH)][Trp(7-CN)][αMeS][Phe(4-CONH2)][Phe(4-CONH2)][Sar][Trp(βS-Me,7-OMe)][X1])) yielded a Kd in test [1] of 0.05 nM. Further, in test [2], the IC50 amounted to 1.3 nM.

Regarding `CCCC[C@@H]1NC(=O)[C@@H]2CC[C@@H](C2)NC(=O)[C@H]([C@@H](C)c2c[nH]c3c(OC)cccc23)NC(=O)CN(C)C(=O)[C@H](Cc2ccc(CN)cc2)NC(=O)[C@H](Cc2ccc(C(N)=O)cc2)NC(=O)[C@](C)(CO)NC(=O)[C@H](Cc2c[nH]c3c(C#N)cccc23)NC(=O)[C@H](Cc2ccc(C(=O)O)cc2)NC(=O)[C@H](CC(N)=O)NC(=O)[C@H]2C[C@H](O)CN2C(=O)[C@H](Cc2c[nH]c3ccccc23)NC(=O)[C@@H]2CC[C@@H](O)CN2C(=O)[C@H](Cc2ccncc2)NC1=O` [SEQ ID NO. 48] (cyclo([4Pal][Pip(5R-OH)]W[dHyp]N[Phe(4-COOH)][Trp(7-CN)][αMeS][Phe(4-CONH2)][Phe(4-CH2NH2)][Sar][Trp(βS-Me,7-OMe)][X1][Nle])), the Kd in test [1] (setting [3]) came to 0.03 nM. In test [2], the IC50 came out at 0.7 nM.

`CCCC[C@@H]1NC(=O)[C@@H]2CC[C@@H](C2)NC(=O)[C@H]([C@@H](C)c2c[nH]c3c(OC)cccc23)NC(=O)CN(C)C(=O)[C@H](Cc2ccc(C(N)=O)cc2)NC(=O)[C@H](Cc2ccc(C(N)=O)cc2)NC(=O)[C@](C)(CO)NC(=O)[C@H](Cc2c[nH]c3c(Cl)cccc23)NC(=O)[C@H](Cc2ccc(C(=O)O)cc2)NC(=O)[C@H](CC(N)=O)NC(=O)[C@H]2C[C@H](O)CN2C(=O)[C@H](Cc2c[nH]c3ccccc23)NC(=O)[C@@H]2CC[C@@H](O)CN2C(=O)[C@H](Cc2ccncc2)NC1=O` [SEQ ID NO. 196] (cyclo([4Pal][Pip(5R-OH)]W[dHyp]N[Phe(4-COOH)][Trp(7-Cl)][αMeS][Phe(4-CONH2)][Phe(4-CONH2)][Sar][Trp(βS-Me,7-OMe)][X1][Nle])): in test [1] (setting [3]), the Kd was 0.05 nM. In addition, the IC50 in test [2] came out at 0.6 nM.

For `CCCC[C@@H]1NC(=O)[C@@H]2CC[C@@H](C2)NC(=O)[C@H]([C@@H](C)c2c[nH]c3c(OC)cccc23)NC(=O)CN(C)C(=O)[C@H](Cc2cccc(C(N)=O)c2)NC(=O)[C@H](Cc2ccc(C(N)=O)cc2)NC(=O)[C@](C)(CO)NC(=O)[C@H](Cc2c[nH]c3c(C#N)cccc23)NC(=O)[C@H](Cc2ccc(C(=O)O)cc2)NC(=O)[C@H](CC(N)=O)NC(=O)[C@H]2C[C@H](F)CN2C(=O)[C@H](Cc2c[nH]c3ccccc23)NC(=O)[C@@H]2CC[C@@H](O)CN2C(=O)[C@H](Cc2ccncc2)NC1=O` [SEQ ID NO. 21] (cyclo([4Pal][Pip(5R-OH)]W[dPro(trans-4-F)]N[Phe(4-COOH)][Trp(7-CN)][αMeS][Phe(4-CONH2)][Phe(3-CONH2)][Sar][Trp(βS-Me,7-OMe)][X1][Nle])), in test [1], the Kd is 0.03 nM. The IC50 in test [2] is 0.9 nM.

For the compound `CCCC[C@@H]1NC(=O)[C@@H]2CC[C@@H](C2)NC(=O)[C@H]([C@@H](C)c2c[nH]c3c(OC)cccc23)NC(=O)CN(C)C(=O)[C@H](Cc2ccc(C(N)=O)cc2)NC(=O)[C@H](Cc2ccc(C(N)=O)cc2)NC(=O)[C@](C)(CO)NC(=O)[C@H](Cc2c[nH]c3c(C#N)cccc23)NC(=O)[C@H](Cc2ccc3c(c2)C(=O)NC3)NC(=O)[C@H](CC(N)=O)NC(=O)[C@H]2C[C@H](OCC(=O)O)CN2C(=O)[C@H](Cc2cn(CC(=O)O)c3ccccc23)NC(=O)[C@@H]2CC[C@@H](O)CN2C(=O)[C@H](Cc2ccncc2)NC1=O` [SEQ ID NO. 22] (cyclo([4Pal][Pip(5R-OH)][Trp(1-CH2COOH)][dHyp](Carboxymethyl)N[X20][Trp(7-CN)][αMeS][Phe(4-CONH2)][Phe(4-CONH2)][Sar][Trp(βS-Me,7-OMe)][X1][Nle])), in test [1] (setting [3]), the Kd was 0.09 nM. Besides, in test [2], the IC50 was 0.6 nM.
